We go through 16 molecules from patent publication US20240307362A1 (priority 2019, published 2024).

Values joined by “and” are separate entries in the source; they are usually repeats but may differ in a detail not shown here. Equal entries are not always repeated. Where two headings read alike, the source gives them in different places. Some results are limits rather than exact numbers.

In one test the target is human Bub1 (Homo sapiens (Human), UniProt O43683). In words: Bub1 high ATP kinase assay (TR-FRET). In kind it is biochemical. The note with it: read-out: Bub1 high ATP (2 mM) IC50; 2 mM ATP. The text has this:
Bub1-inhibitory activity of compounds of the present invention at a high ATP concentration was quantified employing the Bub1 TR-FRET high ATP kinase assay as described in the following paragraphs.
N-terminally His6-tagged recombinant catalytic domain of human Bub1 (amino acids 704-1085), expressed in insect cells (Hi5) and purified by Ni-NTA affinity chromatography and subsequent size exclusion chromatography, was used as enzyme.
(In general: TR-FRET usually uses a lanthanide donor and a delayed reading to cut background.)

The next test has as its system Ba/F3-EGFR-insSVD. In words: Ba/F3 cell survival assay, EGFR-insSVD. Format: cell-based. The protocol: (§1) 293T cells from ATCC were transfected with pBABEpuro expression constructs for WT EGFR or EGFR-insSVD and pCL-Eco packaging vector using Fugene-6 transfection reagent from Promega. Plates were incubated at 37° C. for 48 h. Retrovirus was harvested by filtering the media supernatant through a 0.45 μm filter.
(§2) Ba/F3 cells purchased from DSMZ were grown in RPMI+10% FBS+10 ng/mL IL-3 and infected with filtered retroviral supernatant at a 1:2 dilution. Polybrene was added to a concentration of 8 μg/mL, plates were spun for 90 min, and incubated overnight at 37° C. 2 μg/mL puromycin was added to the infected cells 24 h after infection and cells were continually grown in the presence of puromycin and 10 ng/mL IL-3. Following stably expressing Ba/F3 cell lines were generated: Ba/F3-EGFR-WT, Ba/F3-EGFR-insSVD, (Ba/F3-vector-control).
For cell survival assays, Ba/F3 cells were grown to a density of 1-2 million cells per mL, spun down and resuspended in media without IL-3, and replated at a concentration 200,000-500,000 cells per mL. The cells ectopically expressing WT EGFR or EGFR-insSVD were plated with 10 ng/mL Millipore Culture grade EGF. The cells ectopically expressing pBABEpuro empty vector were plated with 10 ng/mL IL-3.
2 days later, cells were plated in 50 μL in a 384 well plate at a concentration of 4000 cells per well for cells assayed in the absence of IL-3 and 2000 cells per well for cells assayed in the presence of IL-3. 100 nL of compound was added to each well using a 100 nL pin head, and plates were incubated at 37° C. for 48 h.
Cell viability was measured by adding 20 μL of Cell Titer-Glo Luminescent Cell Viability Reagent diluted 1:3 in PBS. Plates were sealed with Perkin Elmer Top-Seal, inverted several times to mix, and immediately centrifuged at 1000 rpm for 2 min. Plates were incubated in low light conditions for 8-10 min and luminescence was measured.

The test system of another test is Ba/F3-EGFR-WT. In words: Ba/F3 cell survival assay, WT EGFR. In kind it is cell-based. Here is the method: as §1, §2
The cells ectopically expressing WT EGFR or EGFR-insSVD were plated with 10 ng/mL Millipore Culture grade EGF. The cells ectopically expressing pBABEpuro empty vector were plated with 10 ng/mL IL-3.
100 nL of compound was added to each well using a 100 nL pin head, and plates were incubated at 37° C. for 48 h.
Cell viability was measured by adding 20 μL of Cell Titer-Glo Luminescent Cell Viability Reagent diluted 1:3 in PBS. Plates were sealed with Perkin Elmer Top-Seal, inverted several times to mix, and immediately centrifuged at 1000 rpm for 2 min.

Where [1] appears, read: read-out: BA/F3 (insSVD) IC50, cell viability, Cell Titer-Glo, 48 h, with 10 ng/mL EGF, without IL-3.
Where [2] appears, read: Mus musculus, BaF3, 48 h, read-out: BA/F3 (wild type) IC50, cell viability, Cell Titer-Glo, 48 h, with 10 ng/mL EGF, without IL-3.
Setting [3] is: read-out: BA/F3 (wild type) IC50, cell viability, Cell Titer-Glo, 48 h, with 10 ng/mL EGF, without IL-3.
The mark [4] stands for this setting: Mus musculus, BaF3, 48 h, read-out: BA/F3 (insSVD) IC50, cell viability, Cell Titer-Glo, 48 h, with 10 ng/mL EGF, without IL-3.

Sequence of human Bub1 (O43683 704-1085): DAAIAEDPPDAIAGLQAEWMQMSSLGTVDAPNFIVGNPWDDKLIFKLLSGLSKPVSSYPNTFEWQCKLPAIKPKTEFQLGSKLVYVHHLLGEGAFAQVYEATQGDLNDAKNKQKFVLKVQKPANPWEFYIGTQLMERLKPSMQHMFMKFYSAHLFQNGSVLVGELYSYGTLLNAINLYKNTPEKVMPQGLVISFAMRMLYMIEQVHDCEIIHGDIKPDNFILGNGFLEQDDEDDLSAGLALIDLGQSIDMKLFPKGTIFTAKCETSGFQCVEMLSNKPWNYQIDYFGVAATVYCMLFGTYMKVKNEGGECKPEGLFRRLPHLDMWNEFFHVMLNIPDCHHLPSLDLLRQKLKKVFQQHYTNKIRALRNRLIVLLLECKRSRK

Regarding `CC1(C)COC1COc1cnccc1-c1[nH]c2c(c1Nc1cccc(Cl)c1OC(F)F)C(=O)NCC2` (single isomer, unassigned) [Example 73, 3-[3-chloro-2-(difluoromethoxy)anilino]-2-(3-{[3,3-dimethyloxetan-2-yl]methoxy}pyridin-4-yl)-1,5,6,7-tetrahydro-4H-pyrrolo[3,2-c]pyridin-4-one], the IC50 at human Bub1 is greater than 20 µM; in the test on Ba/F3-EGFR-insSVD (setting [1]) it was 92.3 nM; in the test on Ba/F3-EGFR-WT (setting [2]) it was 1910 nM.
For `CC1(COc2cnccc2-c2[nH]c3c(c2Nc2cccc(Cl)c2OC(F)F)C(=O)NCC3)CCO1` (single isomer, unassigned) [Example 76, 3-[3-chloro-2-(difluoromethoxy)anilino]-2-(3-{[2-methyloxetan-2-yl]methoxy}pyridin-4-yl)-1,5,6,7-tetrahydro-4H-pyrrolo[3,2-c]pyridin-4-one], the figures for the IC50 on human Bub1, in the test with Ba/F3-EGFR-insSVD (setting [1]) and in the test on Ba/F3-EGFR-WT (setting [3]) were greater than 20 µM, 291 nM and 1880 nM, respectively.
With `O=C1NCCc2[nH]c(-c3ccncc3OCC3CCO3)c(Nc3cccc(Cl)c3Cl)c21` (single isomer, unassigned; (+)) [Example 11, (+)-3-(2,3-dichloroanilino)-2-{3-[(oxetan-2-yl)methoxy]pyridin-4-yl}-1,5,6,7-tetrahydro-4H-pyrrolo[3,2-c]pyridin-4-one], the results for the IC50 at human Bub1, with Ba/F3-EGFR-insSVD (setting [4]) and in the test with Ba/F3-EGFR-WT (setting [2]) were greater than 20 µM, 147 nM and 767 nM, respectively.
For the molecule `COc1c(Nc2c(-c3ccncc3OCC3CCO3)[nH]c3c2C(=O)NCC3)ccc(F)c1Cl` (single isomer, unassigned; (+)) [Example 15, (+)-3-(3-chloro-4-fluoro-2-methoxyanilino)-2-{3-[(oxetan-2-yl)methoxy]pyridin-4-yl}-1,5,6,7-tetrahydro-4H-pyrrolo[3,2-c]pyridin-4-one], the values for the IC50 at human Bub1, with Ba/F3-EGFR-insSVD (setting [1]) and in the test on Ba/F3-EGFR-WT (setting [3]) were greater than 20 µM, 168 nM and 2380 nM, respectively.
With `COc1c(F)cccc1Nc1c(-c2ccncc2OCC2(C)CCO2)[nH]c2c1C(=O)NCC2` (single isomer, unassigned; (+)) [Example 21, (+)-3-(3-fluoro-2-methoxyanilino)-2-{3-[(2-methyloxetan-2-yl)methoxy]pyridin-4-yl}-1,5,6,7-tetrahydro-4H-pyrrolo[3,2-c]pyridin-4-one], the IC50 on human Bub1 was greater than 20 µM; with Ba/F3-EGFR-insSVD (setting [1]) it was 40.4 nM; with Ba/F3-EGFR-WT (setting [3]) it was 571 nM.
Take `COc1c(Cl)cccc1Nc1c(-c2ccncc2OCCC2CCO2)[nH]c2c1C(=O)NCC2` (single isomer, unassigned; (+)) [Example 25, (+)-3-(3-chloro-2-methoxyanilino)-2-{3-[2-(oxetan-2-yl)ethoxy]pyridin-4-yl}-1,5,6,7-tetrahydro-4H-pyrrolo[3,2-c]pyridin-4-one]: the IC50 is 1.08 µM at human Bub1, 4.21 nM in the test with Ba/F3-EGFR-insSVD (setting [4]) and 121 nM with Ba/F3-EGFR-WT (setting [2]).
For `Cc1cccc(Nc2c(-c3ccncc3OCC3CCO3)[nH]c3c2C(=O)NCC3)c1Cl` (single isomer, unassigned; (+)) [Example 38, (+)-3-(2-chloro-3-methylanilino)-2-{3-[(oxetan-2-yl)methoxy]pyridin-4-yl}-1,5,6,7-tetrahydro-4H-pyrrolo[3,2-c]pyridin-4-one], the results for the IC50 at human Bub1, with Ba/F3-EGFR-insSVD (setting [1]) and with Ba/F3-EGFR-WT (setting [3]) were greater than 20 µM, 48.8 nM and 628 nM, respectively.
In the same order, the values of `COc1c(F)cccc1Nc1c(-c2ccncc2OCC2OCC2(C)C)[nH]c2c1C(=O)NCC2` (single isomer, unassigned; (+)) [Example 54, (+)-2-{3-[(3,3-dimethyloxetan-2-yl)methoxy]pyridin-4-yl}-3-(3-fluoro-2-methoxyanilino)-1,5,6,7-tetrahydro-4H-pyrrolo[3,2-c]pyridin-4-one] are greater than 20 µM, 30.9 nM and 498 nM.
Take `Cc1cccc(Nc2c(-c3ccncc3OCC3OCC3(C)C)[nH]c3c2C(=O)NCC3)c1Cl` (single isomer, unassigned; (+)) [Example 59, (+)-3-(2-chloro-3-methylanilino)-2-{3-[(3,3-dimethyloxetan-2-yl)methoxy]pyridin-4-yl}-1,5,6,7-tetrahydro-4H-pyrrolo[3,2-c]pyridin-4-one]: the values for the IC50 on human Bub1, in the test with Ba/F3-EGFR-insSVD (setting [1]) and in the test with Ba/F3-EGFR-WT (setting [3]) were greater than 20 µM, 59.9 nM and 655 nM, respectively.
`O=C1NCCc2[nH]c(-c3ccncc3OCC3CCO3)c(Nc3cccc(Cl)c3Cl)c21` (single isomer, unassigned; (-)) [Example 12, (−)-3-(2,3-dichloroanilino)-2-{3-[(oxetan-2-yl)methoxy]pyridin-4-yl}-1,5,6,7-tetrahydro-4H-pyrrolo[3,2-c]pyridin-4-one]: the figures for the IC50 at human Bub1, in the test with Ba/F3-EGFR-insSVD (setting [1]) and in the test with Ba/F3-EGFR-WT (setting [3]) were 11.3 µM, 192 nM and 991 nM, respectively.
As for `COc1c(Nc2c(-c3ccncc3OCC3CCO3)[nH]c3c2C(=O)NCC3)ccc(F)c1Cl` (single isomer, unassigned; (-)) [Example 14, (−)-3-(3-chloro-4-fluoro-2-methoxyanilino)-2-{3-[(oxetan-2-yl)methoxy]pyridin-4-yl}-1,5,6,7-tetrahydro-4H-pyrrolo[3,2-c]pyridin-4-one], the IC50 came out at 16.3 µM at human Bub1, 438 nM in the test with Ba/F3-EGFR-insSVD (setting [1]) and 1660 nM in the test with Ba/F3-EGFR-WT (setting [2]).
`Cc1cccc(Nc2c(-c3ccncc3OCC3CCO3)[nH]c3c2C(=O)NCC3)c1Cl` (single isomer, unassigned; (-)) [Example 39, (−)-3-(2-chloro-3-methylanilino)-2-{3-[(oxetan-2-yl)methoxy]pyridin-4-yl}-1,5,6,7-tetrahydro-4H-pyrrolo[3,2-c]pyridin-4-one]: the results for the IC50 at human Bub1, in the test on Ba/F3-EGFR-insSVD (setting [1]) and with Ba/F3-EGFR-WT (setting [3]) were 8.32 µM, 473 nM and 1650 nM, respectively.
Regarding `COc1c(Cl)cccc1Nc1c(-c2ccncc2OCC2(C)CCO2)[nH]c2c1C(=O)NCC2` (single isomer, unassigned; (-)) [Example 47, (−)-3-(3-chloro-2-methoxyanilino)-2-{3-[(2-methyloxetan-2-yl)methoxy]pyridin-4-yl}-1,5,6,7-tetrahydro-4H-pyrrolo[3,2-c]pyridin-4-one], the figures for the IC50 on human Bub1, in the test on Ba/F3-EGFR-insSVD (setting [1]) and in the test on Ba/F3-EGFR-WT (setting [3]) were 8.86 µM, 96.4 nM and 975 nM, respectively.
As to `COc1c(Cl)cccc1Nc1c(-c2ccncc2OCC2OCC2(C)C)[nH]c2c1C(=O)NCC2` (single isomer, unassigned; (-)) [Example 51, (−)-3-(3-chloro-2-methoxyanilino)-2-{3-[(3,3-dimethyloxetan-2-yl)methoxy]pyridin-4-yl}-1,5,6,7-tetrahydro-4H-pyrrolo[3,2-c]pyridin-4-one], the IC50 on human Bub1 was 17.1 µM and 17.3 µM and > 20 µM; with Ba/F3-EGFR-insSVD (setting [1]), 153 nM; with Ba/F3-EGFR-WT (setting [3]) it was 1050 nM.
Consider `Cc1cccc(Nc2c(-c3ccncc3OCC3OCC3(C)C)[nH]c3c2C(=O)NCC3)c1Cl` (single isomer, unassigned; (-)) [Example 60, (−)-3-(2-chloro-3-methylanilino)-2-{3-[(3,3-dimethyloxetan-2-yl)methoxy]pyridin-4-yl}-1,5,6,7-tetrahydro-4H-pyrrolo[3,2-c]pyridin-4-one], for which the IC50 was 18.8 µM and > 20 µM at human Bub1; greater than 1000 nM in the test with Ba/F3-EGFR-insSVD (setting [1]); 2130 nM with Ba/F3-EGFR-WT (setting [3]).
`COc1c(F)cccc1Nc1c(-c2ccncc2OC[C@@H]2CCO2)[nH]c2c1C(=O)NCC2` [Example 5, 3-(3-fluoro-2-methoxyanilino)-2-(3-{[(2S)-oxetan-2-yl]methoxy}pyridin-4-yl)-1,5,6,7-tetrahydro-4H-pyrrolo[3,2-c]pyridin-4-one]: the values for the IC50 on human Bub1, with Ba/F3-EGFR-insSVD (setting [4]) and in the test on Ba/F3-EGFR-WT (setting [2]) were greater than 20 µM, 22.4 nM and 578 nM, respectively.
